# Assay results taken from patent US12486489B2, “Culture medium for testing drug resistance of H.pylori as well as preparation method and use thereof” (priority 2022, dated 2025).
# How the values were obtained:
# H. pylori [1] = experiment: Effects of NiCl2 on H. pylori on culture medium (50 mL Colombian culture medium with 80 mg urea and 0.4 mg phenol red); assay type: cell-based, Helicobacter pylori; design: key to bacteria growth and discoloration: +: refers to a good bacteria growth after 36 hours of culture, with a discoloration; ++: refers to a good bacteria growth after 36 hours of culture, with an obvious discoloration; conditions: for bacteria growth and discoloration: 36 hours of culture
# H. pylori [2] = experiment: Effects of urea and phenol red on H. pylori on Columbia culture medium; assay type: cell-based, Helicobacter pylori; conditions: for bacterial growth: 1 × 10^6 CFU/mL; for effect on the growth of H. pylori: strains G27 and 287, 72 hours
smiles,measurement,setting,value
"[Cl][Ni][Cl] [NiCl2, nickel chloride]",recognition of the discoloration reaction,H. pylori [1]; NiCl2 100 μmol/L,has reached its maximum
same,sensitivity and identification of the discoloration reaction,"H. pylori [1]; NiCl2 1 μMol/L to 200 μMol/L, 80 mg urea, 0.4 mg phenol red, pH 7.15 to 7.35",the sensitivity and identification of the discoloration reaction are further improved
same,bacteria growth and discoloration,"H. pylori [1]; strain 159, NiCl2 1 μmol/L",+
same,bacteria growth and discoloration,"H. pylori [1]; strain 159, NiCl2 10 μmol/L",+
same,bacteria growth and discoloration,"H. pylori [1]; strain 159, NiCl2 100 μmol/L",++
same,bacteria growth and discoloration,"H. pylori [1]; strain 161, NiCl2 1 μmol/L",+
same,bacteria growth and discoloration,"H. pylori [1]; strain 161, NiCl2 10 μmol/L",+
same,bacteria growth and discoloration,"H. pylori [1]; strain 161, NiCl2 100 μmol/L",++
same,bacteria growth and discoloration,"H. pylori [1]; strain 162, NiCl2 1 μmol/L",+
same,bacteria growth and discoloration,"H. pylori [1]; strain 162, NiCl2 10 μmol/L",+
same,bacteria growth and discoloration,"H. pylori [1]; strain 162, NiCl2 100 μmol/L",++
same,bacteria growth and discoloration,"H. pylori [1]; strain 163, NiCl2 1 μmol/L",+
same,bacteria growth and discoloration,"H. pylori [1]; strain 163, NiCl2 10 μmol/L",+
same,bacteria growth and discoloration,"H. pylori [1]; strain 163, NiCl2 100 μmol/L",++
same,bacteria growth and discoloration,"H. pylori [1]; strain 286, NiCl2 1 μmol/L",+
same,bacteria growth and discoloration,"H. pylori [1]; strain 286, NiCl2 10 μmol/L",+
same,bacteria growth and discoloration,"H. pylori [1]; strain 286, NiCl2 100 μmol/L",++
same,bacteria growth and discoloration,"H. pylori [1]; strain 287, NiCl2 1 μmol/L",+
same,bacteria growth and discoloration,"H. pylori [1]; strain 287, NiCl2 10 μmol/L",+
same,bacteria growth and discoloration,"H. pylori [1]; strain 287, NiCl2 100 μmol/L",++
same,bacteria growth and discoloration,"H. pylori [1]; strain 289, NiCl2 1 μmol/L",+
same,bacteria growth and discoloration,"H. pylori [1]; strain 289, NiCl2 10 μmol/L",+
same,bacteria growth and discoloration,"H. pylori [1]; strain 289, NiCl2 100 μmol/L",++
same,bacteria growth and discoloration,"H. pylori [1]; strain 290, NiCl2 1 μmol/L",+
same,bacteria growth and discoloration,"H. pylori [1]; strain 290, NiCl2 10 μmol/L",+
same,bacteria growth and discoloration,"H. pylori [1]; strain 290, NiCl2 100 μmol/L",++
same,bacteria growth and discoloration,"H. pylori [1]; strain 26695, NiCl2 1 μmol/L",+
same,bacteria growth and discoloration,"H. pylori [1]; strain 26695, NiCl2 10 μmol/L",+
same,bacteria growth and discoloration,"H. pylori [1]; strain 26695, NiCl2 100 μmol/L",++
same,bacteria growth and discoloration,"H. pylori [1]; strain G27, NiCl2 1 μmol/L",+
same,bacteria growth and discoloration,"H. pylori [1]; strain G27, NiCl2 10 μmol/L",+
same,bacteria growth and discoloration,"H. pylori [1]; strain G27, NiCl2 100 μmol/L",++
"NC(N)=O [Urea, urea]",maximum value of added urea without affecting the growth of H. pylori,H. pylori [2]; in 50 mL Colombian culture medium,80 mg
same,bacterial growth,"H. pylori [2]; strain 159, urea 60 mg",++
same,bacterial growth,"H. pylori [2]; strain 159, urea 80 mg",++
same,bacterial growth,"H. pylori [2]; strain 159, urea 100 mg",+
same,bacterial growth,"H. pylori [2]; strain 159, urea 120 mg",+
same,bacterial growth,"H. pylori [2]; strain 159, urea 240 mg",−
same,bacterial growth,"H. pylori [2]; strain 161, urea 60 mg",++
same,bacterial growth,"H. pylori [2]; strain 161, urea 80 mg",++
same,bacterial growth,"H. pylori [2]; strain 161, urea 100 mg",+
same,bacterial growth,"H. pylori [2]; strain 161, urea 120 mg",+
same,bacterial growth,"H. pylori [2]; strain 161, urea 240 mg",−
same,bacterial growth,"H. pylori [2]; strain 162, urea 60 mg",++
same,bacterial growth,"H. pylori [2]; strain 162, urea 80 mg",++
same,bacterial growth,"H. pylori [2]; strain 162, urea 100 mg",+
same,bacterial growth,"H. pylori [2]; strain 162, urea 120 mg",+
same,bacterial growth,"H. pylori [2]; strain 162, urea 240 mg",−
same,bacterial growth,"H. pylori [2]; strain 163, urea 60 mg",++
same,bacterial growth,"H. pylori [2]; strain 163, urea 80 mg",++
same,bacterial growth,"H. pylori [2]; strain 163, urea 100 mg",+
same,bacterial growth,"H. pylori [2]; strain 163, urea 120 mg",+
same,bacterial growth,"H. pylori [2]; strain 163, urea 240 mg",−
same,bacterial growth,"H. pylori [2]; strain 286, urea 60 mg",++
same,bacterial growth,"H. pylori [2]; strain 286, urea 80 mg",++
same,bacterial growth,"H. pylori [2]; strain 286, urea 100 mg",+
same,bacterial growth,"H. pylori [2]; strain 286, urea 120 mg",+
same,bacterial growth,"H. pylori [2]; strain 286, urea 240 mg",−
same,bacterial growth,"H. pylori [2]; strain 287, urea 60 mg",++
same,bacterial growth,"H. pylori [2]; strain 287, urea 80 mg",++
same,bacterial growth,"H. pylori [2]; strain 287, urea 100 mg",+
same,bacterial growth,"H. pylori [2]; strain 287, urea 120 mg",+
same,bacterial growth,"H. pylori [2]; strain 287, urea 240 mg",−
same,bacterial growth,"H. pylori [2]; strain 289, urea 60 mg",++
same,bacterial growth,"H. pylori [2]; strain 289, urea 80 mg",++
same,bacterial growth,"H. pylori [2]; strain 289, urea 100 mg",+
same,bacterial growth,"H. pylori [2]; strain 289, urea 120 mg",+
same,bacterial growth,"H. pylori [2]; strain 289, urea 240 mg",−
same,bacterial growth,"H. pylori [2]; strain 290, urea 60 mg",++
same,bacterial growth,"H. pylori [2]; strain 290, urea 80 mg",++
same,bacterial growth,"H. pylori [2]; strain 290, urea 100 mg",+
same,bacterial growth,"H. pylori [2]; strain 290, urea 120 mg",+
same,bacterial growth,"H. pylori [2]; strain 290, urea 240 mg",−
same,bacterial growth,"H. pylori [2]; strain 26695, urea 60 mg",++
same,bacterial growth,"H. pylori [2]; strain 26695, urea 80 mg",++
same,bacterial growth,"H. pylori [2]; strain 26695, urea 100 mg",+
same,bacterial growth,"H. pylori [2]; strain 26695, urea 120 mg",+
same,bacterial growth,"H. pylori [2]; strain 26695, urea 240 mg",−
same,bacterial growth,"H. pylori [2]; strain G27, urea 60 mg",++
same,bacterial growth,"H. pylori [2]; strain G27, urea 80 mg",++
same,bacterial growth,"H. pylori [2]; strain G27, urea 100 mg",+
same,bacterial growth,"H. pylori [2]; strain G27, urea 120 mg",+
same,bacterial growth,"H. pylori [2]; strain G27, urea 240 mg",−
same,effect on the growth of H. pylori,H. pylori [2]; urea 60 mg in 50 mL Colombian culture medium,no effect on the growth of H. pylori
same,effect on the growth of H. pylori,H. pylori [2]; urea 120 mg to 240 mg in 50 mL Colombian culture medium,the growth is not good
